Consider four compounds from PMC9873984, “Membrane cholesterol regulates inhibition and substrate transport by the glycine transporter, GlyT2” (Life Science Alliance, 2023).

Structures are written as SMILES. Positions count from the first letter of the chain named.

One test deals with T1, GlyT2 T512A mutant (Homo sapiens, UniProt Q9Y345, T512A).
T1 sequence (Q9Y345 1-797 T512A): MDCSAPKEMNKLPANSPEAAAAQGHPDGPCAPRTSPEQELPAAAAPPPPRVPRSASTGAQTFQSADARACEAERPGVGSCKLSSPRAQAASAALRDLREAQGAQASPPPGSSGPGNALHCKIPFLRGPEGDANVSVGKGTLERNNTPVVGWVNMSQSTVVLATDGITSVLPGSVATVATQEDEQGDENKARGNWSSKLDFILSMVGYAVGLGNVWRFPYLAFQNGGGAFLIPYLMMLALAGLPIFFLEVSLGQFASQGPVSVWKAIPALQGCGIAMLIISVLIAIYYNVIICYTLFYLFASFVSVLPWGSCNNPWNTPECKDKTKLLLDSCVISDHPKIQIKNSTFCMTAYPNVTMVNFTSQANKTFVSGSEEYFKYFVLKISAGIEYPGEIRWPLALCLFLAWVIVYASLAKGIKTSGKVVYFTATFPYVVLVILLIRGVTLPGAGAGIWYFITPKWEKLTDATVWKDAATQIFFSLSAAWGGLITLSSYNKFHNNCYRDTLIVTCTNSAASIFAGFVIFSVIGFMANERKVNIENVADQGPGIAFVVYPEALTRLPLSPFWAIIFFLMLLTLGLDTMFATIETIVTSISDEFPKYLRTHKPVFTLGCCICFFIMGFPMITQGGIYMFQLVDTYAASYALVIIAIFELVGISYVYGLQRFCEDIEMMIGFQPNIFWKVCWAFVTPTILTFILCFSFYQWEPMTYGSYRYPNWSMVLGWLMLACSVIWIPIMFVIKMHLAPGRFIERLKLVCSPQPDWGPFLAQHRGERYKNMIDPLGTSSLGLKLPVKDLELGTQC
Description: Inhibitor concentration–responses on glycine transport currents, two-electrode voltage clamp. The conditions noted are these: for IC50: T512A GlyT2 in Xenopus laevis oocytes. It counts as cell-based. On the set-up: expressed in transfected cells; host or cells: Xenopus laevis oocytes injected with mutant RNA (pOTV vector). Here is the method: (§1) Because of the slowly reversible nature of the compounds tested, inhibitor concentration–responses were performed cumulatively. An EC50 concentration of glycine was applied until a stable transport current was reached. EC50 concentrations of glycine were used to produce reliable currents for each transporter, and as the inhibitors are non-competitive, application of varying glycine concentrations is unlikely to affect their activity. Increasing concentrations of inhibitors were co-applied with glycine with each concentration producing a distinct plateau before the subsequent concentration was applied. Inhibitor concentration–responses were limited to a maximum concentration of 3 µM to mitigate the risk of changes to the free drug concentration because of micelle formation. Currents after the plateau of each inhibitor concentration were normalized to the current produced by application of glycine alone and fit using the method of least squares: Y=Bottom+(Top−Bottom)/(1+10^[X−LogIC50]), where X is log [inhibitor], Y is current normalized to glycine in the absence of inhibitor, and Top and Bottom are the maximal and minimal plateaus, respectively. The method of least squares was constrained to have the bottom value >0 and the hill slope as −1, enabling the calculation of IC50 values and the extent of inhibition produced by the maximal concentration applied.
(§2) IC50 values are presented as the mean and 95% confidence interval, whereas inhibition values are presented as the mean ± SEM. Data sets are n ≥ 5 from two batches of oocytes.
Background: In two-electrode clamp one electrode senses voltage and the other passes current.

The target of another test is T2, GlyT2 Y430F mutant (Homo sapiens, UniProt Q9Y345, Y430F).
T2 sequence (Q9Y345 1-797 Y430F): T1 sequence (Q9Y345 1-797 T512A) with Y430F, A512T
The description is as above. The format is cell-based. On the set-up: expressed in transfected cells; host or cells: Xenopus laevis oocytes injected with mutant RNA (pOTV vector). The conditions noted are these: for IC50: Y430F GlyT2 in Xenopus laevis oocytes. Here is the method: as §1, §2

Broadly, the IC50 is the concentration needed to halve the response being measured. Read a low IC50 as higher potency. A word on the Inhibition: it is the relative decrease from the control value, in per cent. Turning to `CCCCCCCC/C=C\CCCCCCCC(=O)N[C@@H](Cc1c[nH]c2ccccc12)C(=O)O` [Oleoyl-L-Tryptophan, oleoyl-L-tryptophan], the IC50 on GlyT2 T512A mutant stood at 85 nM; against GlyT2 Y430F mutant it was 125 nM. In addition, the “Inhibition at 3 μM” value was found to be 74.4 ± 4.5% at GlyT2 T512A mutant (T512A) and 84.5 ± 3.6% at GlyT2 Y430F mutant (Y430F).
For `CCCCCCCC/C=C\CCCCCCCC(=O)N[C@@H](CC(C)C)C(=O)O` [Oleoyl-L-Leucine, oleoyl-L-leucine], in that order: 549 nM, 203 nM, 50.7 ± 5.7 % and 76.7 ± 2.8%.
As to `CCCCCCCC/C=C\CCCCCCCC(=O)O[C@H](CC(=O)[O-])C[N+](C)(C)C` [Oleoyl-L-Carnitine, oleoyl-L-carnitine], the figures for the half-maximal inhibitory concentration (IC50) on GlyT2 T512A mutant (95% CI could not be fit) and against GlyT2 Y430F mutant were 1700 nM and 190 nM, respectively. Besides, the “Inhibition at 1 µM (column head 3 μM, footnote b)” value on GlyT2 T512A mutant (T512A, 1 µM) was 44.1 ± 2.8^b %; at GlyT2 Y430F mutant (Y430F, 1 µM), 71.0 ± 3.3^*b %.
On to `CCCCCCCC/C=C\CCCCCCCC(=O)N[C@@H](CCCCN)C(=O)O` [Oleoyl-L-Lysine, oleoyl-L-lysine], for which the half-inhibitory concentration (IC50) against GlyT2 T512A mutant was 679 nM; at GlyT2 Y430F mutant it was 123 nM. Also, the “Inhibition at 3 μM” value is listed as 68.0 ± 1.7 % on GlyT2 T512A mutant (T512A) and 92.9 ± 1.7% at GlyT2 Y430F mutant (Y430F).
